In PMC5027092, “Specific histamine binding activity of a new lipocalin from Hyalomma asiaticum (Ixodidae) and therapeutic effects on allergic asthma in mice” (Parasites & Vectors, 2016):

Biological target: T1, Ha24 (rHa24-GST) (Hyalomma asiaticum, UniProt A0A1W5TAU9)
T1 construct: precursor 227 aa with 26-residue signal peptide, mature 201 aa
T1 sequence (A0A1W5TAU9 27-227): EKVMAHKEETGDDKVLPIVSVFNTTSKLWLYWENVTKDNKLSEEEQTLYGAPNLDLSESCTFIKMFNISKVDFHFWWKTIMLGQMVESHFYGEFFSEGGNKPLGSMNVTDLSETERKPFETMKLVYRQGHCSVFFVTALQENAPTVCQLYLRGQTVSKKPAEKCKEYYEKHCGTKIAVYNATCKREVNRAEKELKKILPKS
Experiment: ELISA with immobilised rHa24-GST and histamine-HRP conjugate, OD […] nm
Type: binding
Conditions: labelled compound (histamine-HRP); protein coated at 1.25-10 ug/ml, pH 9.6; 37 °C, 2 h; GST as control

Question: NCCc1c[nH]cn1 [histamine] was tested. Which “ELISA with immobilised rHa24-GST and histamine-HRP conjugate, OD 650 nm” value did it give?
Answer: The results showed that rHa24 has the ability to bind with histamine
